Measured values: patent US12661385B2, “Modulation of mTORCI activity and autophagy via CIB2-RHEB interaction” (University of Maryland, Baltimore, priority 2018, dated 2026)

Assays:
[1] = test system: RPE-specific Cib2^KO mice; conditions: mouse, in vivo
Source text: For comparison, untreated WT control mice (black squares) are replotted from FIG. 6b. c, Schematic of treatment paradigm in RPE-specific Cib2^KO injected with 9-cis retinal and control mice injected with vehicle. d. […] TEM micrographs for indicated genotype at the end of the treatment paradigm as outlined in c (n=3/genotype).
To further assess the potential clinical translatability of exogenous retinoids, we tested an extended treatment paradigm following injection of 9-cis retinal in RPE-specific Cib2^KO mice (FIG. 4c). […] To assess medium-term efficacy of exogenous retinoid therapy, we extended the paradigm further by one month.
Electroretinograms (ERG) were recorded as earlier described^14 with modifications. Mice, overnight dark-adapted, were anesthetized with ketamine-xylazine (100 mg/kg and 10 mg/kg, respectively) and pupils were dilated with 1% Tropicamide. A gold wire lens electrode was placed on the cornea, a platinum reference electrode in the mouth, and a ground electrode on the tail. To assess rod-driven responses, increasing scotopic stimuli were presented sequentially (0.003962233 to 3.147314 cd×s/m2) with 5-60 sec intervals using UTAS BigShot (LKC Technologies, Gaithersburg, MD). At least 3 waveforms per intensity were averaged. For cone function evaluation, photopic responses to a single bright flash (3.15 cd×s/m2) under a steady rod-suppressing field of cd×s/m2. Waves were analyzed using EM for Windows software (LKC Technologies).

[2] = test system: RPE-specific Cib2^KO mice; experiment: TEM analysis of the RPE at the conclusion of treatment; type: in vivo, mouse; conditions: 9-cis retinal-treated RPE-specific Cib2^KO mice
Experimental: FIG. 4. […] Scale bar. 2 μm.
Sections for EM were prepared as previously described 48. Briefly, hemisected eyecups were rinsed in buffer and postfixed in 2% osmium tetroxide and 1.5% potassium ferrocyanide in dH2O for 2 hr, dehydrated in a graded ethanol series, and embedded in Epon-Araldite (Electron Microscopy Sciences, Hatfield, PA). Semi-thin sections (4 μm) were cut and stained with 1% cresyl violet. Ultra-thin sections (90 nm) were cut on an ultramicrotome (Ultracut E 701704, Reichert-Jung, Buffalo, NY) using a diamond knife (Micro Star Technologies, Inc., Huntsville, TX), collected on copper grids, counterstained with 4% methanolic uranyl acetate (Electron Microscopy Sciences, Hatfield, PA), and outer retinal morphology examined using a transmission electron microscope (TEM; Model 300: Phillips, Eindhoven, The Netherlands). Photomicrographs were captured with a digital camera (15 megapixel digital camera, Scientific Instruments and Applications, Duluth, GA) and Maxim DL Version 5 software (Diffraction Limited, Ottawa, Canada).

TSC1 = molecular target: T1, TSC1 (Homo sapiens, UniProt Q92574); experiment: NanoSPD (nanoTRAP) interaction assay in COS-7 cells, TSC1; type: binding; conditions: FLAG-tagged TSC1
T1 construct: host or cells: COS-7
T1 sequence (Q92574 1-1164): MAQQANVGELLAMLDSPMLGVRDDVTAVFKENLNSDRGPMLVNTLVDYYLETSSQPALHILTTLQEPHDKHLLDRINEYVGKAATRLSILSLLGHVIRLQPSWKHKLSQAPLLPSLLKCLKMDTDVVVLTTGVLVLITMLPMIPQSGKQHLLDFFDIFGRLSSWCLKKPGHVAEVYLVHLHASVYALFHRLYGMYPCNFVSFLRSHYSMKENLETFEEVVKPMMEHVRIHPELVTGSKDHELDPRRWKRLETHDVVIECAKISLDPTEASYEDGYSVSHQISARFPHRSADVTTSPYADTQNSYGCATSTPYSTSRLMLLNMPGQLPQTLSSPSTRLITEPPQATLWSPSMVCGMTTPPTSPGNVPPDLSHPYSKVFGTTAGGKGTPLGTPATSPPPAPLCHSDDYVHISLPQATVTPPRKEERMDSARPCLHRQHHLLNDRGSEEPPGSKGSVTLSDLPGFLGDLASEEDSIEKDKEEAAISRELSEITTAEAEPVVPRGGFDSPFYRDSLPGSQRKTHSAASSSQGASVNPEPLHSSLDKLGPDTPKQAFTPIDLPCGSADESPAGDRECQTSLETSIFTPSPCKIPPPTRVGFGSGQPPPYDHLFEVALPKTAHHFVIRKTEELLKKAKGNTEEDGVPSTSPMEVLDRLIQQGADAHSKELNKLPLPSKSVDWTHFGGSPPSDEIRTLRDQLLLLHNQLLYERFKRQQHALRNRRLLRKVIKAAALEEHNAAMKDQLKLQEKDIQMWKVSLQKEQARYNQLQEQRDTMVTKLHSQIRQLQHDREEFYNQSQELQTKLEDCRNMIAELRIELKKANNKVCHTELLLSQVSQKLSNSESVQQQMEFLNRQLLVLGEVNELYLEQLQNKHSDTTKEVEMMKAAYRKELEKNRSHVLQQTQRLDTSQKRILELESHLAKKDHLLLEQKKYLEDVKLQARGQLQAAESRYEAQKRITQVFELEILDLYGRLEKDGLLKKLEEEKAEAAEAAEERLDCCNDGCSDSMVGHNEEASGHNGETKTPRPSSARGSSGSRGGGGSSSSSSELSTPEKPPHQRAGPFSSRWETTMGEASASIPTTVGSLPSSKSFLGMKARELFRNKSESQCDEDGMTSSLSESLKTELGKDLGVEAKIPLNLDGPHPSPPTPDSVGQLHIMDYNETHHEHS
Source text: (§1) FIG. 14. […] Arrowheads indicate filopodia tip accumulation of hCIB2-eGFP, * indicates no accumulation of indicted constructs in the red channel. c. Representative confocal images (top panel) showing CIB2 (green) interaction with Rheb (red) and Raptor (red) using NanoTRAP assay. […] Arrowheads indicate filopodia tip accumulation of indicated constructs, * indicates no accumulation of indicted construct in the red or far-red channel. Scale bar: 10 μm. d. Quantification for nanoTRAP assay for images shown above. *** p<0.001 by one-way ANOVA. e, Co-IP experiments show interaction between Raptor and CIB2.
(§2) To reveal the molecular mechanism of CIB2-mediated mTORC1 modulation, we focused on the TSC-Rheb-mTORC1 axis. We performed an interaction screen of specific proteins including TSC1, TSC2, mTORC1-specific subunit Raptor, mTOR kinase, and Rheb. We used a recently-published quantitative interaction assay known as nanoscale pulldown 2.0 (NanoSPD), in which eGFP-nanobody tag fused to the myosin-HMM domain (nanoTRAP) preferentially migrates to the filopodia (Bird et al., Molecular Biology of the Cell 28, 463-475 (2017)). CIB2-eGFP (bait) migrated efficiently to filopodia in COS-7 cells only in the presence of the nanoTRAP. […] Many downstream and upstream targets of mTORC1 regulate its activity via binding to the mTORC1-specific subunit Raptor. […]

TSC2 = molecular target: T2, TSC2 (Homo sapiens, UniProt P49815); experiment: NanoSPD (nanoTRAP) interaction assay in COS-7 cells, TSC2; type: binding; conditions: FLAG-tagged TSC2
T2 construct: host or cells: COS-7
T2 sequence (P49815 whole entry): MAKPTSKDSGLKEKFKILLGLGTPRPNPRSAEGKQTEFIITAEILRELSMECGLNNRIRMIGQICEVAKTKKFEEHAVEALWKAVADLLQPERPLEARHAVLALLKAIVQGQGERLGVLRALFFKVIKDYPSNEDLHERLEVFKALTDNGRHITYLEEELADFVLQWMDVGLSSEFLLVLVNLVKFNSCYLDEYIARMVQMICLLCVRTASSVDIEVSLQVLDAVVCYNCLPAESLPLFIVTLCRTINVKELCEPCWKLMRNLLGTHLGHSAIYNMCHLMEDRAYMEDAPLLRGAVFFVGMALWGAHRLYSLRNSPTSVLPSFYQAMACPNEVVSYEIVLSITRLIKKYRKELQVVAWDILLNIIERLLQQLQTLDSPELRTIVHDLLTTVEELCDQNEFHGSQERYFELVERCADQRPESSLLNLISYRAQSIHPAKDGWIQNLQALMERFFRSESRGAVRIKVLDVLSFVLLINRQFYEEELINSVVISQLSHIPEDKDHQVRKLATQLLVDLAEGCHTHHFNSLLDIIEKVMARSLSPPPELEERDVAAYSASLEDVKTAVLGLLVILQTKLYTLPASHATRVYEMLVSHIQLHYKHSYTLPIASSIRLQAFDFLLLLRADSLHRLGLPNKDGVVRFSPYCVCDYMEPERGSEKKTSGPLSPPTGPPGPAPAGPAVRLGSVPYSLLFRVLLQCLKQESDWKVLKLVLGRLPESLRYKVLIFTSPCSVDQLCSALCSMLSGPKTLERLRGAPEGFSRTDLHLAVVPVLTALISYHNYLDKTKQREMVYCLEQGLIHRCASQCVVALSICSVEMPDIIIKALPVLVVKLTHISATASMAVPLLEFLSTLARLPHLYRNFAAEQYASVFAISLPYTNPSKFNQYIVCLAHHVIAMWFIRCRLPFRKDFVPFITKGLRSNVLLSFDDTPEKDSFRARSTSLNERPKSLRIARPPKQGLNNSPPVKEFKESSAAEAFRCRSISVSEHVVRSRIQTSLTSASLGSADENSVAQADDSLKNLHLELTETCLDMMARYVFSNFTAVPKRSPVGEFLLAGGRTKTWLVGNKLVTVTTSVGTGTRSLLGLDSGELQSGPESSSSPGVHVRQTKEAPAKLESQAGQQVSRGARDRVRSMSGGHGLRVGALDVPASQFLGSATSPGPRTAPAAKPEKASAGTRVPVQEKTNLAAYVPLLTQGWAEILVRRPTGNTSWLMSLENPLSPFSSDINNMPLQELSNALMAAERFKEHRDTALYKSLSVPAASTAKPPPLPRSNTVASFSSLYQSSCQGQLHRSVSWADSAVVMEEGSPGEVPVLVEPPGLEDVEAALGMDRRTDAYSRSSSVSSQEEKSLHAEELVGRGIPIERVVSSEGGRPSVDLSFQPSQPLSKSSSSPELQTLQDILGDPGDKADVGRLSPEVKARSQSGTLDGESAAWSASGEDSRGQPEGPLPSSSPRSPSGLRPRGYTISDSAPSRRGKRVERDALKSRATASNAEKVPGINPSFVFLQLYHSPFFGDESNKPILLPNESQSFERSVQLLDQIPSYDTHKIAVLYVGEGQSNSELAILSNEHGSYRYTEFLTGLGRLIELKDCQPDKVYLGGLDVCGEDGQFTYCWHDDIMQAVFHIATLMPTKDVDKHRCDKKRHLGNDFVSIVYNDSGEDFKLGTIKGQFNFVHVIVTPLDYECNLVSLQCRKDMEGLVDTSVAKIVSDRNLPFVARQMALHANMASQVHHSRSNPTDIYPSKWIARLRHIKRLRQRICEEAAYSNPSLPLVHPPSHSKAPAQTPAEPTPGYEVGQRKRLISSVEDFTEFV
Source text: as §1, §2

Rheb = Rheb (Homo sapiens, UniProt Q15382); experiment: Co-IP of tdTomato-CIB2 with HA-GST-Rheb and Rheb variants; type: binding; parameters: host or cells: HEK293; conditions: HEK293 lysates
Chain of Rheb (Q15382 1-181): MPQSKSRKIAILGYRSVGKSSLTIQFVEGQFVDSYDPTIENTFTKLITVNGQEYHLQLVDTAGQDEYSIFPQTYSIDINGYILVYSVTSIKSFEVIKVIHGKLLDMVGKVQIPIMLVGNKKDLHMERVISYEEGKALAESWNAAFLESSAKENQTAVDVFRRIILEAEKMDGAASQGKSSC
Experimental: FIG. 3. […] Note the stronger interaction between CIB2 and Rheb S20N variant as compared to Q64L variant (GDP vs GTP mimetic, respectively). c, CIB2 preferentially interacts with GDP-loaded Rheb is further confirmed by co-IP experiments of HA-GST-Rheb immobilized on […] and loaded with either GDP or GTPγS, followed by incubation with tdTomato-CIB2 lysate. d, Proposed model of CIB2 function in retinal sensory cells. […] Loss of CIB2 results in reduced autophagy and exacerbated mTORC1 signaling, thus leading to RPE pathology and secondary PR dysfunction. e, f Immunoblots from RPE/choroid lysates from dry AMD or control age-matched donors indicate reduced CIB2 expression, overactive mTORC1 and reduced autophagy, quantified in panel f. Unpaired two-tailed 1 test was used to determine statistical significance. p value of <0.05 (*), <0.01 (**), and <0.001 (***). Please note that one control sample (ψ) is outliner and is highly variant from the rest, Re-quantification, omitting the highly variant control sample, is shown in FIG. 15. g.
We tested the essentiality of nucleotide binding state of Rheb using co-IP assays. […] Next, we used the Q64L and […] Rheb variants, which mimic the GTP- and GDP-bound state, respectively. […]

CC1=C(/C=C/C(C)=C\C=C\C(C)=C\C=O)C(C)(C)CCC1 [9-cis retinal]
ERG amplitude differences between groups four weeks post-injection [1]: returned to their baseline levels | ERG amplitudes after the treatment paradigm (overall) [1]: temporarily but reproducibly improved ERG amplitudes | ERG amplitudes four weeks after the 2nd injection [1]: diverged significantly | ERG amplitudes two weeks after the 1st injection [1]: indistinguishable from those of vehicle-injected RPE-Cre+ controls | ERG amplitudes two weeks after the 2nd injection [1]: no discernable inter-group differences | Mice with vacuoles and/or sub-RPE drusen present in the RPE (TEM) [2]: 3 of 3

B1: CIB2-eGFP: eGFP-tagged human CIB2 used as bait in the NanoSPD assay (protein)
chain: MGNKQTIFTEEQLDNYQDCTFFNKKDILKLHSRFYELAPNLVPMDYRKSPIVHVPMSLIIQMPELRENPFKERIVAAFSEDGEGNLTFNDFVDMFSVLCESAPRELKANYAFKIYDFNTDNFICKEDLELTLARLTKSELDEEEVVLVCDKVIEEADLDGDGKLGFADFEDMIAKAPDFLSTFHIRI
modifications: left off: large carriers
notes: eGFP-tagged human CIB2 used as bait in the NanoSPD assay
Co-accumulation with TSC1 (NanoSPD) (TSC1): did not show any co-accumulation | Co-accumulation with TSC2 (NanoSPD) (TSC2): did not show any co-accumulation

B2: tdTomato-CIB2: tdTomato tagged CIB2 expressed in HEK293 cells (tdTomato-C1-mCIB2 construct) (protein)
chain: MGNKQTIFTEEQLDNYQDCTFFNKKDILKLHARFYELAPNLVPMDYRKSPIVHVPMSLIIQMPELRENPFKERIVEAFSEDGEGNLTFNDFVDMFSVLCESAPRELKANYAFKIYDFNTDNFICKEDLEMTLARLTKSELEEDEVVLVCDKVIEEADLDGDGKLGFADFEDMIAKAPDFLSTFHIRI
modifications: left off: large carriers
Co-immunoprecipitation with HA-GST-Rheb (Rheb): co-immunoprecipitated with HA-GST-Rheb
